From patent publication US20200187502A1, “MICROBIOCIDAL OXADIAZOLE DERIVATIVES” (SYNGENTA PARTICIPATIONS AG, priority 2017, published 2020)

How the values were obtained:
[1] = system: Glomerella lacenarium (Colletotrichum lacenarium); experiment: Fungicidal activity, liquid culture, cucumber preventative (anthracnose); format: cell-based; details: 20 ppm in the applied formulation, liquid culture in PDB, inhibition of growth measured photometrically 3 to 4 days after application, compared to untreated control, read-out: disease control
Method: Mycelia fragments or conidia suspensions of a fungus prepared either freshly from liquid cultures of the fungus or from cryogenic storage, are directly mixed into nutrient broth. DMSO solutions of the test compound (max. 10 mg/ml) are diluted with 0.025% Tween20 by a factor of 50 and 10 μl of this solution is pipetted into a microtiter plate (96-well format). The nutrient broth containing the fungal spores/mycelia fragments is then added to give an end concentration of the tested compound. The test plates are incubated in the dark at 24° C. and 96% relative humidity. The inhibition of fungal growth is determined photometrically after 2 to 7 days, depending on the pathosystem, and percent antifungal activity relative to the untreated check is calculated.
Conidia of the fungus from cryogenic storage are directly mixed into nutrient broth (PDB—potato dextrose broth). After placing a (DMSO) solution of test compound into a microtiter plate (96-well format), the nutrient broth containing the fungal spores is added. The test plates are incubated at 24° C. and the inhibition of growth is measured photometrically 3 to 4 days after application.
The following compounds at 20 ppm in the applied formulation give at least 80% disease control in this test when compared to untreated control under the same conditions, which show extensive disease development.

[2] = system: Puccinia recondita f. Sp. Tritici; experiment: Fungicidal activity, wheat leaf disc preventative (brown rust); format: in vivo; details: foliar, 200 ppm in the applied formulation, wheat leaf segments cv. Kanzler, compared to untreated control, 7 to 9 days after application, read-out: disease control
Method: Leaf disks or leaf segments of various plant species are cut from plants grown in a greenhouse. The cut leaf disks or segments are placed in multiwell plates (24-well format) onto water agar. The leaf disks are sprayed with a test solution before (preventative) or after (curative) inoculation. Compounds to be tested are prepared as DMSO solutions (max. 10 mg/ml) which are diluted to the appropriate concentration with 0.025% Tween20 just before spraying. The inoculated leaf disks or segments are incubated under defined conditions (temperature, relative humidity, light, etc.) according to the respective test system. A single evaluation of disease level is carried out 3 to 14 days after inoculation, depending on the pathosystem. Percent disease control relative to the untreated check leaf disks or segments is then calculated.
Wheat leaf segments cv. Kanzler were placed on agar in multiwell plates (24-well format) and sprayed with the formulated test compound diluted in water. The leaf disks were inoculated with a spore suspension of the fungus 1 day after application. The inoculated leaf segments were incubated at 19° C. and 75% relative humidity (rh) under a light regime of 12 hours light/12 hours darkness in a climate cabinet and the activity of a compound was assessed as percent disease control compared to untreated when an appropriate level of disease damage appears in untreated check leaf segments (7 to 9 days after application).
The following compounds at 200 ppm in the applied formulation give at least 80% disease control in this test when compared to untreated control leaf disks under the same conditions, which show extensive disease development.

Row | SMILES | inhibition of growth at 20 ppm [1] [%] | pest or weed control at 200 ppm [2] [%]
1 | CC(C)CC(=O)C(=O)N(Cc1ccc(-c2noc(C(F)(F)F)n2)s1)C1CC1 [Compound 6.58, N-cyclopropyl-4-methyl-2-oxo-N-[[5-[5-(trifluoromethyl)-1,2,4-oxadiazol-3-yl]-2-thienyl]methyl]pentanamide] | ≥ 80 | ≥ 80
2 | CC(C)(C)C(=O)C(=O)N(Cc1ccc(-c2noc(C(F)(F)F)n2)s1)C1CC1 [Compound 6.55, N-cyclopropyl-3,3-dimethyl-2-oxo-N-[[5-[5-(trifluoromethyl)-1,2,4-oxadiazol-3-yl]-2-thienyl]methyl]butanamide] | ≥ 80 | ≥ 80
3 | CCN(Cc1ccc(-c2noc(C(F)(F)F)n2)s1)S(=O)(=O)C1CC1 [Compound 6.19, N-ethyl-N-[[5-[5-(trifluoromethyl)-1,2,4-oxadiazol-3-yl]-2-thienyl]methyl]cyclopropanesulfonamide] | ≥ 80 | ≥ 80
4 | CCCS(=O)(=O)N(C)Cc1ccc(-c2noc(C(F)(F)F)n2)s1 [Compound 6.31, N-methyl-N-[[5-[5-(trifluoromethyl)-1,2,4-oxadiazol-3-yl]-2-thienyl]methyl]propane-1-sulfonamide] | ≥ 80 | ≥ 80
5 | CON(Cc1ccc(-c2noc(C(F)(F)F)n2)s1)S(=O)(=O)N(C)C [Compound 1.43, N-(dimethylsulfamoyl)-N-methoxy-1-[5-[5-(trifluoromethyl)-1,2,4-oxadiazol-3-yl]-2-thienyl]methanamine] | ≥ 80 | ≥ 80
6 | O=S(=O)(C1CC1)N(Cc1ccc(-c2noc(C(F)(F)F)n2)s1)C1CC1 [Compound 6.38, N-cyclopropyl-N-[[5-[5-(trifluoromethyl)-1,2,4-oxadiazol-3-yl]-2-thienyl]methyl]cyclopropanesulfonamide] | ≥ 80 | ≥ 80
7 | CC(=O)N(Cc1ccc(-c2noc(C(F)(F)F)n2)s1)C1CC1 [Compound 4.61, N-cyclopropyl-N-[[5-[5-(trifluoromethyl)-1,2,4-oxadiazol-3-yl]-2-thienyl]methyl]acetamide] | ≥ 80 | ≥ 80
8 | CCN(Cc1ccc(-c2noc(C(F)(F)F)n2)s1)C(=O)C(=O)CC(C)C [Compound 6.44, N-ethyl-4-methyl-2-oxo-N-[[5-[5-(trifluoromethyl)-1,2,4-oxadiazol-3-yl]-2-thienyl]methyl]pentanamide] | ≥ 80 | ≥ 80
9 | O=C(C(=O)N(Cc1ccc(-c2noc(C(F)(F)F)n2)s1)C1CC1)c1cccs1 [Compound 6.59, N-cyclopropyl-2-oxo-2-(2-thienyl)-N-[[5-[5-(trifluoromethyl)-1,2,4-oxadiazol-3-yl]-2-thienyl]methyl]acetamide] | ≥ 80 | ≥ 80
10 | CON(Cc1ccc(-c2noc(C(F)(F)F)n2)s1)S(=O)(=O)c1ccn(C)n1 [Compound 1.33, N-methoxy-1-methyl-N-[[5-[5-(trifluoromethyl)-1,2,4-oxadiazol-3-yl]-2-thienyl]methyl]pyrazole-3-sulfonamide] | ≥ 80 | ≥ 80
11 | COCCS(=O)(=O)N(Cc1ccc(-c2noc(C(F)(F)F)n2)s1)C1CC1 [Compound 6.32, N-cyclopropyl-2-methoxy-N-[[5-[5-(trifluoromethyl)-1,2,4-oxadiazol-3-yl]-2-thienyl]methyl]ethanesulfonamide] | ≥ 80 | ≥ 80
12 | CCCS(=O)(=O)N(Cc1ccc(-c2noc(C(F)(F)F)n2)s1)C1CC1 [Compound 6.39, N-cyclopropyl-N-[[5-[5-(trifluoromethyl)-1,2,4-oxadiazol-3-yl]-2-thienyl]methyl]propane-1-sulfonamide] | ≥ 80 | ≥ 80
13 | CCN(Cc1ccc(-c2noc(C(F)(F)F)n2)s1)S(=O)(=O)Cc1ccccc1 [Compound 6.13, N-ethyl-1-phenyl-N-[[5-[5-(trifluoromethyl)-1,2,4-oxadiazol-3-yl]-2-thienyl]methyl]methanesulfonamide] | ≥ 80 | ≥ 80
14 | CN(Cc1ccc(-c2noc(C(F)(F)F)n2)s1)C(=O)C(=O)Cc1ccccc1 [Compound 6.50, N-methyl-2-oxo-3-phenyl-N-[[5-[5-(trifluoromethyl)-1,2,4-oxadiazol-3-yl]-2-thienyl]methyl]propanamide] | ≥ 80 | ≥ 80
15 | CN(Cc1ccc(-c2noc(C(F)(F)F)n2)s1)S(=O)(=O)C1CC1 [Compound 6.30, N-methyl-N-[[5-[5-(trifluoromethyl)-1,2,4-oxadiazol-3-yl]-2-thienyl]methyl]cyclopropanesulfonamide] | ≥ 80 | ≥ 80
16 | O=C(C(=O)N(Cc1ccc(-c2noc(C(F)(F)F)n2)s1)C1CC1)c1ccco1 [Compound 6.60, N-cyclopropyl-2-(2-furyl)-2-oxo-N-[[5-[5-(trifluoromethyl)-1,2,4-oxadiazol-3-yl]-2-thienyl]methyl]acetamide] | ≥ 80 | ≥ 80
17 | O=C(C(=O)N(Cc1ccc(-c2noc(C(F)(F)F)n2)s1)OCC(F)F)c1ccccc1 [Compound 6.61, N-(2,2-difluoroethoxy)-2-oxo-2-phenyl-N-[[5-[5-(trifluoromethyl)-1,2,4-oxadiazol-3-yl]-2-thienyl]methyl]acetamide] | ≥ 80 | ≥ 80
18 | CON(Cc1ccc(-c2noc(C(F)(F)F)n2)s1)S(=O)(=O)C1CC1 [Compound 1.37, N-methoxy-N-[[5-[5-(trifluoromethyl)-1,2,4-oxadiazol-3-yl]-2-thienyl]methyl]cyclopropanesulfonamide] | ≥ 80 | ≥ 80
19 | CN(Cc1ccc(-c2noc(C(F)(F)F)n2)s1)C(=O)c1ccccc1Cl [Compound 5.17, 2-chloro-N-methyl-N-[[5-[5-(trifluoromethyl)-1,2,4-oxadiazol-3-yl]-2-thienyl]methyl]benzamide] | ≥ 80 | ≥ 80
20 | O=S(=O)(Cc1ccccc1)N(Cc1ccc(-c2noc(C(F)(F)F)n2)s1)C1CC1 [Compound 6.33, N-cyclopropyl-1-phenyl-N-[[5-[5-(trifluoromethyl)-1,2,4-oxadiazol-3-yl]-2-thienyl]methyl]methanesulfonamide] | ≥ 80 | ≥ 80
21 | COC(=O)N(Cc1ccc(-c2noc(C(F)(F)F)n2)s1)OC [Compound 1.5, methyl N-methoxy-N-[[5-[5-(trifluoromethyl)-1,2,4-oxadiazol-3-yl]-2-thienyl]methyl]carbamate] | ≥ 80 | ≥ 80
22 | CN(C)S(=O)(=O)N(Cc1ccc(-c2noc(C(F)(F)F)n2)s1)C1CC1 [Compound 6.2, N-(dimethylsulfamoyl)-N-[[5-[5-(trifluoromethyl)-1,2,4-oxadiazol-3-yl]-2-thienyl]methyl]cyclopropanamine] | ≥ 80 | ≥ 80
23 | CON(Cc1ccc(-c2noc(C(F)(F)F)n2)s1)C(=O)c1ccccc1Cl [Compound 1.20, 2-chloro-N-methoxy-N-[[5-[5-(trifluoromethyl)-1,2,4-oxadiazol-3-yl]-2-thienyl]methyl]benzamide] | ≥ 80 | ≥ 80
24 | CC(C)N(Cc1ccc(-c2noc(C(F)(F)F)n2)s1)C(=O)c1ccccc1Cl [Compound 5.26, 2-chloro-N-isopropyl-N-[[5-[5-(trifluoromethyl)-1,2,4-oxadiazol-3-yl]-2-thienyl]methyl]benzamide] | ≥ 80 | ≥ 80
25 | O=C(C1CCCO1)N(Cc1ccc(-c2noc(C(F)(F)F)n2)s1)OCC(F)F (centres unmarked) [Compound 5.49, N-(2,2-difluoroethoxy)-N-[[5-[5-(trifluoromethyl)-1,2,4-oxadiazol-3-yl)-2-thienyl]methyl]tetrahydrofuran-2-carboxamide] | ≥ 80 | ≥ 80
